Assay results: US9145391B2, “Bipyridylaminopyridines as Syk inhibitors” (Merck Sharp & Dohme Corp., priority 2011, dated 2015)

Experiments:
[1] = Hydrolysis assay: hydrolysis of prodrug to parent species in human liver S9; type: in vitro ADME; details: human liver S9 1 mg protein/mL, prodrug 10 μM, 37° C., pH 7.4, 1 mM NADPH
Method: Hydrolysis Assay: Analysis of Hydrolysis of Prodrug to Parent Species
The stability of 8 different prodrugs was investigated in human liver S9 microsomes. Incubations of prodrugs (10 μM) with liver S9 (1 mg protein/mL) were carried out at 37° C. in a phosphate buffer, pH 7.4, containing 1 mM NADPH. Control incubations contained BSA (1.1 mg/mL) instead of liver S9 microsomes. Aliquots were removed at 0, 5, 15, 30, 60 and 120 min, treated with 4 volumes of acetonitrile containing 2% formic acid and an internal standard, and centrifuged. The supernatants were analyzed by LC-MS/MS for prodrug disappearance and appearance of active drug. The half-life of the prodrug was calculated from the % prodrug remaining at different time points calculated from on the peak area ratio relative to t=0. The amount of active drug generated at the different time points was determined using a standard curve.

[2] = molecular target: recombinant human GST-Syk (Homo sapiens (Human), UniProt P43405); assay: Homogeneous Time-Resolved Fluorescence (HTRF) assay for the recombinant human Syk enzyme; type: biochemical; details: recombinant human GST-Syk 5 pM, ATP 25 μM, read-out: rhSyk IC50
In short: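 HTRF read-out of phosphorylation of a biotinylated Syk-site peptide (250 nM final) by a GST-tagged human Syk fusion. Reaction initiated with ATP at 25 μM final plus 5 mM magnesium final. Compound potency taken from inhibition of human Syk activity.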

With Cc1cc(Nc2cc(C(F)F)ccn2)nc(-c2ccc(C(C)(O)[C@H]3CC[C@H](C(=O)OCC(=O)N(C)C)CC3)nc2)c1 (single isomer, unassigned) [Example 19-18, 2-(dimethylamino)-2-oxoethyl trans-4-[(1R or 1S)-1-(6-{[4-(difluoromethyl)pyridin-2-yl]amino}-4-methyl-2,3′-bipyridin-6′-yl)-1-hydroxyethyl] cyclohexanecarboxylate] the “Half-life (min) of the conversion of the prodrug to the carboxylic acid” value [1] was 6.2 min and the IC50 [2] was 1.2 nM.

In the case of Cc1cc(Nc2cc(C(F)(F)F)ccn2)nc(-c2ccc(NC3CCN(C(=O)c4cccc5c4NC(=O)C5)CC3)nc2)c1 [Example 447], the IC50 [2] is reported as 6 nM.

Molecule Cc1cc(Nc2cc(C(F)(F)F)ccn2)nc(-c2ccc(NC3CCN(C(=O)c4cccc5c4Cc4ccccc4-5)CC3)nc2)c1 [Example 4-54] has an IC50 [2] of 149 nM.

Cc1cc(Nc2cc(C(F)(F)F)ccn2)nc(-c2ccc(C3(O)CCN(C(=O)c4ccc5nc(C)c(C)nc5c4)CC3)nc2)c1 [Example 9-4] showed an IC50 [2] of 5 nM.

With Cc1cc(Nc2cc(C(F)F)ccn2)nc(-c2ccc(C(C)(O)[C@H]3CC[C@H](C(=O)OCCO)CC3)nc2)c1 (single isomer, unassigned) [Example 18, 2-Hydroxyethyl trans-4-[(1R or 1S)-1-(6-{[4-(difluoromethyl)pyridin-2-yl]amino}-4-methyl-2,3′-bipyridin-6′-yl)-1-hydroxyethyl]cyclohexanecarboxylate] the IC50 [2] was 3.4 nM.

Work on Cc1cc(Nc2cc(C(F)(F)F)ccn2)nc(-c2ccc(NC3CCN(C(=O)c4cccc(-c5ccccc5)c4)CC3)nc2)c1 [Example 4-122] yielded an IC50 [2] of 3 nM.

Cc1cc(Nc2cc(C(F)(F)F)ccn2)nc(-c2ccc(NC3CCN(C(=O)Cc4cccc(C(F)(F)F)c4)CC3)nc2)c1 [Example 4-96] showed an IC50 [2] of 103 nM.

Cc1cc(Nc2cc(C(F)F)ccn2)nc(-c2ccc(C(C)(O)[C@H]3CC[C@H](C(=O)OC4CCCCC4)CC3)nc2)c1 (single isomer, unassigned) [Example 19-12, cyclohexyl trans-4-[(1R or 1S)-1-(6-{[4-(difluoromethyl)pyridin-2-yl]amino}-4-methyl-2,3′-bipyridin-6′-yl)-1-hydroxyethyl] cyclohexanecarboxylate] showed an IC50 [2] of 47 nM.

In the case of Cc1cc(Nc2cc(C(F)(F)F)ccn2)nc(-c2ccc(NC3CCN(C(=O)Cc4c(C)[nH]c5ccccc45)CC3)nc2)c1 [Example 4-88], the IC50 [2] is reported as 11 nM.

Work on Cc1cc(Nc2cc(C(F)(F)F)ccn2)nc(-c2ccc(NC3CCN(C(=O)Cc4ccc(C#N)cc4)CC3)nc2)c1 [Example 4-91] yielded an IC50 [2] of 4 nM.

In the case of Cc1cc(Nc2cc(C(F)F)ccn2)nc(-c2ccc(C(C)(O)[C@H]3CC[C@H](C(=O)O)CC3)nc2)c1 (single isomer, unassigned) [Example 16, Sodium trans-4-[(1R or 1S)-1-(6-{[4-(difluoromethyl)pyridin-2-yl]amino}-4-methyl-2,3′-bipyridin-6′-yl)-1-hydroxyethyl]cyclohexanecarboxylate], the IC50 [2] is reported as < 0.5 nM.

With Cc1cc(Nc2cc(C(F)(F)F)ccn2)nc(-c2ccc(C3(O)CCN(C(=O)OC(C)(C)C)CC3)nc2)c1 [Example 1-5] the IC50 [2] was 406 nM.

Work on Cc1cc(Nc2cc(C(F)(F)F)ccn2)nc(-c2ccc(NC3CCN(C(=O)c4cc(-c5ccccc5)n[nH]4)CC3)nc2)c1 [Example 4-10] yielded an IC50 [2] of 14 nM.

Cc1cc(Nc2cc(C(F)F)ccn2)nc(-c2ccc(C(C)(O)[C@H]3CC[C@H](CO)CC3)nc2)c1 (single isomer, unassigned) [Example 23, (1R or 1S)-1-(6-{[4-(difluoromethyl)pyridin-2-yl]amino}-4-methyl-2,3′-bipyridin-6′-yl)-1-[trans-4-(hydroxymethyl)cyclohexyl]ethanol] showed an IC50 [2] of 1 nM.

Molecule Cc1cc(Nc2cc(C(F)(F)F)ccn2)nc(-c2ccc(N3CC(C4CCC(C(=O)O)CC4)C3)nc2)c1 (stereo not shown) [Example 2-22] has an IC50 [2] of 3 nM.

For Cc1cc(Nc2cc(C(F)(F)F)ccn2)nc(-c2ccc(NC3CCN(C(=O)c4cccc5[nH]ccc45)CC3)nc2)c1 [Example 4-33], the IC50 [2] was 7 nM.

Cc1cc(Nc2cc(C(F)(F)F)ccn2)nc(-c2ccc(NC3CCN(C(=O)c4cccc5[nH]ncc45)CC3)nc2)c1 [Example 4-120] gave an IC50 [2] of 9 nM.

Work on Cc1cc(Nc2cc(C(F)(F)F)ccn2)nc(-c2ccc(NC3CCN(C(=O)c4ccc5c(c4)C(=O)NC5)CC3)nc2)c1 [Example 4-4] yielded an IC50 [2] of 1 nM.

For Cc1cc(Nc2cc(C(F)(F)F)ccn2)nc(-c2ccc(NC3CCN(C(=O)c4ccccc4Cn4cncn4)CC3)nc2)c1 [Example 4-26], the IC50 [2] was 7 nM.

Molecule Cc1cc(Nc2cc(C(F)(F)F)ccn2)nc(-c2ccc(N3CCOCC3)nc2)c1 [Example 2-30] has an IC50 [2] of 14 nM.

Cc1cc(Nc2cc(C(F)(F)F)ccn2)nc(-c2ccc(NC3CCN(C(=O)c4cccc(Cn5cccn5)c4)CC3)nc2)c1 [Example 4-29] showed an IC50 [2] of 7 nM.

In the case of Cc1cc(Nc2cc(C(F)(F)F)ccn2)nc(-c2ccc(NC3CCN(C(=O)c4cc(-n5cccn5)ccc4Cl)CC3)nc2)c1 [Example 4-48], the IC50 [2] is reported as 30 nM.

With Cc1cc(Nc2cc(C(F)(F)F)ccn2)nc(-c2ccc(C3(O)CCCc4cc(C(=O)O)ccc43)nc2)c1 (stereo not shown) [Example 1-22] the IC50 [2] was 1 nM.

Work on Cc1cc(Nc2cc(C(F)(F)F)ccn2)nc(-c2ccc(NC3CCN(C(=O)c4ccc5[nH]c(C)c(C)c5c4)CC3)nc2)c1 [Example 4-103] yielded an IC50 [2] of 11 nM.

Cc1cc(Nc2cc(C(F)(F)F)ccn2)nc(-c2ccc(NC3CCN(C(=O)Cc4ccc5ccccc5c4)CC3)nc2)c1 [Example 4-41] showed an IC50 [2] of 58 nM.

In the case of Cc1cc(Nc2cc(C(F)(F)F)ccn2)nc(-c2ccc(C[C@H]3CC[C@H](C(=O)O)CC3)nc2)c1 [Example 10 trans isomer, trans-4-[(4-methyl-6-{[4-(trifluoromethyl)pyridin-2-yl]amino}-2,3′-bipyridin-6′-yl)methyl]cyclohexanecarboxylic acid], the IC50 [2] is reported as < 0.5 nM.

For Cc1cc(Nc2cc(C(F)(F)F)ccn2)nc(-c2ccc(C3(O)CCC(C(=O)O)C(C)(C)C3)nc2)c1 (stereo not shown) [Example 1-26], the IC50 [2] was 1 nM.

With CCCCCOC(=O)[C@H]1CC[C@H](C(C)(O)c2ccc(-c3cc(C)cc(Nc4cc(C(F)F)ccn4)n3)cn2)CC1 (single isomer, unassigned) [Example 19-7, pentyl trans-4-[(1R or 1S)-1-(6-{[4-(difluoromethyl)pyridin-2-yl]amino}-4-methyl-2,3′-bipyridin-6′-yl)-1-hydroxyethyl] cyclohexanecarboxylate] the IC50 [2] was 100 nM.

In the case of Cc1cc(Nc2cc(C(F)(F)F)ccn2)nc(-c2ccc(NC3CCN(C(=O)c4ccccc4N4CCN(C)CC4)CC3)nc2)c1 [Example 4-20], the IC50 [2] is reported as 4 nM.

Cc1cc(Nc2cc(C(F)(F)F)ccn2)nc(-c2ccc(NC3CCN(C(=O)c4cc5ccccc5n4-c4ccccc4)CC3)nc2)c1 [Example 4-118] showed an IC50 [2] of 176 nM.

Molecule Cc1cc(Nc2cc(C(F)(F)F)ccn2)nc(-c2ccc(NC3CCN(C(=O)c4cccnc4)CC3)nc2)c1 [Example 4-94] has an IC50 [2] of 2 nM.

Cc1cc(Nc2cc(C(F)F)ccn2)nc(-c2ccc(C(C)(O)[C@H]3CC[C@H](C(=O)OC(C)OC(=O)OC4CCCCC4)CC3)nc2)c1 (single isomer, unassigned) [Example 20-10, 1-{[(cyclohexyloxy)carbonyl]oxy}ethyl trans-4-[(1R or 1S)-1-(6-{[4-(difluoromethyl)pyridin-2-yl]amino}-4-methyl-2,3′-bipyridin-6′-yl)-1-hydroxyethyl] cyclohexanecarboxylate] gave an IC50 [2] of 190 nM.

Work on Cc1cc(Nc2cc(C(F)(F)F)ccn2)nc(-c2ccc(NC3CCN(C(=O)c4ccc(-c5ccccc5)cc4)CC3)nc2)c1 [Example 4-81] yielded an IC50 [2] of 44 nM.

Cc1cc(Nc2cc(C(F)(F)F)ccn2)nc(-c2ccc(NC3CCN(C(=O)COc4ccccc4-c4ccccc4)CC3)nc2)c1 [Example 4-25] gave an IC50 [2] of 209 nM.

Cc1cc(Nc2cc(C(F)(F)F)ccn2)nc(-c2ccc(NC3CCN(C(=O)c4nccc5ncccc45)CC3)nc2)c1 [Example 4-35] showed an IC50 [2] of 3 nM.

Work on Cc1cc(Nc2cc(C(F)(F)F)ccn2)nc(-c2ccc(NC3CCN(C(=O)c4ccc(O)cc4)CC3)nc2)c1 [Example 4-106] yielded an IC50 [2] of 6 nM.

For CCCCCCCCOC(=O)[C@H]1CC[C@H](C(C)(O)c2ccc(-c3cc(C)cc(Nc4cc(C(F)F)ccn4)n3)cn2)CC1 (single isomer, unassigned) [Example 19-11, octyl trans-4-[(1R or 1S)-1-(6-{[4-(difluoromethyl)pyridin-2-yl]amino}-4-methyl-2,3′-bipyridin-6′-yl)-1-hydroxyethyl] cyclohexanecarboxylate], the IC50 [2] was > 10000 nM.

In the case of Cc1cc(Nc2cc(C(F)(F)F)ccn2)nc(-c2ccc(NC3CCN(C(=O)CCCN4CCCC4=O)CC3)nc2)c1 [Example 4-89], the IC50 [2] is reported as 1 nM.

Work on Cc1cc(Nc2cc(C(F)(F)F)ccn2)nc(-c2ccc(NC3CCN(C(=O)c4ccc5c(c4)CNC5=O)CC3)nc2)c1 [Example 4-5] yielded an IC50 [2] of 2 nM.

Cc1cc(Nc2cc(C(F)(F)F)ccn2)nc(-c2ccc(NC3CCN(C(=O)c4ccccn4)CC3)nc2)c1 [Example 4-104] gave an IC50 [2] of 2 nM.

With CC(O)(c1ccc(-c2cc(C3CC3)cc(Nc3cc(C(F)F)ccn3)n2)cn1)C1CCC(C(=O)O)CC1 (stereo not shown) [Example 1-33] the IC50 [2] was < 0.5 nM.

For Cc1cc(Nc2cc(C(F)(F)F)ccn2)nc(-c2ccc(NC3CCN(C(=O)c4ccc(Oc5ccccc5)cc4)CC3)nc2)c1 [Example 4-114], the IC50 [2] was 23 nM.
